This passage reports hygroscopicity results from patent US20230063538A1, “LARGE SCALE PROCESS” (GALECTO BIOTECH AB, priority 2019, published 2023).

SMILES strings stand for the structures.

The series can be described thus: Solid-state characterisation of polymorphic Form 1 (hygroscopicity). Type of series: physicochemical. Conditions: crystalline polymorphic Form 1 of the compound of formula (I).

Consider `OC[C@H]1O[C@H](Sc2cncc(Br)c2)[C@H](O)[C@@H](n2cc(-c3cc(F)c(F)c(F)c3)nn2)[C@H]1O` [Form 1, 5-Bromopyridin-3-yl 3-deoxy-3-[4-(3,4,5-trifluorophenyl)-1H-1,2,3-triazol-1-yl]-1-thio-α-D-galactopyranoside], for which the hygroscopicity entry is given as “not hygroscopic”.
